Reference: US20190010158A1, “ANTITUMOR EFFECT POTENTIATOR COMPRISING PYRROLOPYRIMIDINE COMPOUND” (TAIHO PHARMACEUTICAL CO., LTD, priority 2015, published 2019)
pIC50: −log10 of the molar value. Where a name gives a salt, the structure may show the parent alone. One block for each compound: values may come before it.

Tests used:
[1] = system: human acute myelogenous leukemia (AML) THP-1 cell lines; assay: Example 21: tumor growth inhibition in mice, combinational treatment with azacytidine; format: in vivo; settings: THP-1 in mice; intraperitoneally 20 mg/kg/day, days 1, 4, 8, 11, 15, 18; day 22
Text: (§1) RTVn=TVn/TV1 (equation D)
(§2) BWCn (%)=(BWn−BW1)/BW1×100 (equation F)
(§3) The test ended on day 22.

[2] = system: tumor cell lines shown in Table 40; assay: Example 10: combined use with HDAC inhibitor, cell growth inhibition test (IC50 ratio, CI); format: cell-based; settings: U266B1; for Comprehensive Evaluation: combined use with Reference Example Compound 55; for CI: at ED50
[3] = system: tumor cell line shown in Table 36; assay: Example 8: combined use with BTK inhibitor, cell growth inhibition test (IC50 ratio, CI); format: cell-based; settings: MV-4-11; for CI: at ED50
U266B1 = assay: Example 1: combined use with proteasome inhibitor, cell growth inhibition test (IC50 ratio, CI), U266B1; format: cell-based, human; settings: for CI: at ED50
[4] = system: Human multiple myeloma (MM) KMS-26 cell lines; assay: Example 16: tumor growth inhibition in mice, combinational treatment with bortezomib; format: in vivo; settings: KMS-26 in mice; 1 mg/kg/day, days 1, 4, 8, 11; day 15
Text: (§4) The test ended on day 15.
A necessary amount of the test compound was weighed to prepare a solution to administer to the mice.
as §1, §2

[5] = system: tumor cell line shown in Table 28; assay: Example 4: combined use with PARP inhibitor, cell growth inhibition test (IC50 ratio, CI); format: cell-based; settings: A549; for CI: at ED50
[6] = system: tumor cell lines shown in Table 58; assay: Example 22: combined use with IAP antagonist, cell growth inhibition test (IC50 ratio, CI); format: cell-based; settings: HL-60; for CI: at ED50
[7] = system: tumor cell line shown in Table 38; assay: Example 9: combined use with BCL-2 inhibitor, cell growth inhibition test (IC50 ratio, CI); format: cell-based; settings: MOLT-4; for CI: at ED50
[8] = system: human clear cell sarcoma SU-CCS-1 cell lines; assay: Example 18: tumor growth inhibition in mice, combinational treatment with doxorubicin; format: in vivo; settings: day 22
Text: as §1, §2, §3
The control group was untreated.

[9] = system: tumor cell line shown in Table 34; assay: Example 7: combined use with Exportin-1 inhibitor, cell growth inhibition test (IC50 ratio, CI); format: cell-based; settings: HCT116; for CI: at ED50
[10] = system: tumor cell lines shown in Table 24; assay: Example 2: combined use with tyrosine kinase inhibitor, cell growth inhibition test (IC50 ratio, CI); format: cell-based; settings: MOLT-4; for CI: at ED50
[11] = system: human acute myelogenous leukemia (AML) MV-4-11 cell lines; assay: Example 17: tumor growth inhibition in mice, combinational treatment with gilteritinib; format: in vivo; settings: MV-4-11 in mice; orally 3 mg/kg/day, days 1-14; day 15
Text: as §1, §2, §4

HL-60 = assay: Example 1: combined use with proteasome inhibitor, cell growth inhibition test (IC50 ratio, CI), HL-60; format: cell-based; settings: for CI: at ED50
[12] = system: human lung cancer A-427 cell line; assay: Cell growth inhibition 2, A-427; format: cell-based
[13] = biological target: T1, NAE (heterodimer of APPBP1 and UBA3) (Homo sapiens, UniProt Q8TBC4); assay: Nedd8 conjugation inhibitory activity (AlphaScreen); format: biochemical; settings: purified NAE, GST-UBC12, ATP, Biotin-Nedd8, reaction 90 minutes
T1 construct: amino acids 1 to 463 of human UBA3 protein; made in house; host or cells: Sf9 insect cells (baculovirus co-infection) for NAE; E. coli BL21 (DE3) for GST-UBC12
T1 sequence (Q8TBC4 1-463): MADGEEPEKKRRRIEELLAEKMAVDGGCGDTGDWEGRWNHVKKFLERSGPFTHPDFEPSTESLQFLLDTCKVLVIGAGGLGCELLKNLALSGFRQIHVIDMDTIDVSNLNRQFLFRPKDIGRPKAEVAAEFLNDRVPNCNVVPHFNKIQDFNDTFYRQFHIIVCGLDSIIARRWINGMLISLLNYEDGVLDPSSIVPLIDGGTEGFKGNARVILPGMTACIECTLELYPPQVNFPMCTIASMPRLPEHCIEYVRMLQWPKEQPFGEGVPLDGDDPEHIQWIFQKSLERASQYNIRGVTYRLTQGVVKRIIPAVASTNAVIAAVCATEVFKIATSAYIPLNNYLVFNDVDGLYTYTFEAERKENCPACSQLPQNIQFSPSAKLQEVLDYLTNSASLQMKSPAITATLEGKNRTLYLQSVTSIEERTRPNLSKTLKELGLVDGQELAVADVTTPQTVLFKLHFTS
T1 sequence (Q13564 1-534 partner): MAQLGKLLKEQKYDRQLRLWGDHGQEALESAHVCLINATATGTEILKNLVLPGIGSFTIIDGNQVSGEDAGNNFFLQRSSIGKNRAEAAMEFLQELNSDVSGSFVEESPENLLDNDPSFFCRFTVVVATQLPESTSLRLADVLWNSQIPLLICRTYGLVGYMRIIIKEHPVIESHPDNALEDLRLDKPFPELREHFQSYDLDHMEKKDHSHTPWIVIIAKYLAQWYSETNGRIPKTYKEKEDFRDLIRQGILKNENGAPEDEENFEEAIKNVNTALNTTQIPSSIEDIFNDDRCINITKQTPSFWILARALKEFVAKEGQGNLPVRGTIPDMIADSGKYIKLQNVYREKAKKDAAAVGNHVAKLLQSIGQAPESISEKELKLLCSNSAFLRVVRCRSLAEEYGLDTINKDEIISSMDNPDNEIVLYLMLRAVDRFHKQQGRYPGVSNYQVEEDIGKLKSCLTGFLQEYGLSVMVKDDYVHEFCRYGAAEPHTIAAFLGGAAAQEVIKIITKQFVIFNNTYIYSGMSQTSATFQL

[14] = system: human breast cancer MDA-MB-453 cell line; assay: Cell growth inhibition 2, MDA-MB-453; format: cell-based
[15] = system: human pancreatic cancer Capan-1 cell line; assay: Cell growth inhibition 2, Capan-1; format: cell-based
[16] = system: human acute T lymphoblastic leukemia CCRF-CEM cell lines; assay: Cell growth inhibition 1 (CellTiter-Glo); format: cell-based; settings: culture with test compound 72 hours
[17] = system: human colon cancer HCT116 cell line; assay: Cell growth inhibition 2, HCT116; format: cell-based; settings: HCT-116
[18] = system: human prostate cancer LNCAP.FGC cell line; assay: Cell growth inhibition 2, LNCaP.FGC; format: cell-based
[19] = system: human acute leukemia MV-4-11 cell line; assay: Cell growth inhibition 2, MV-4-11; format: cell-based; settings: MV4-11
[20] = system: human multiple myeloma U266B1 cell line; assay: Cell growth inhibition 2, U266B1; format: cell-based
[21] = system: human osteo- and soft tissue sarcoma SJCRH30 cell line; assay: Cell growth inhibition 2, SJCRH30; format: cell-based
[22] = system: human skin cancer A-431 cell line; assay: Cell growth inhibition 2, A-431; format: cell-based
[23] = system: human diffuse large B-cell lymphoma DB cell line; assay: Cell growth inhibition 2, DB; format: cell-based
[24] = IC50 of Reference Example Compound 55 : IC50 of other compound = 1:value
[25] = Reference Example Compound 55:other compound 1:0.07
[26] = combined use with Reference Example Compound 55
[27] = Reference Example Compound 55:other compound 1:10
[28] = Reference Example Compound 55:other compound 1:30
[29] = Reference Example Compound 55:other compound 1:60
[30] = SU-CCS-1 in mice, intravenously 8 mg/kg/day, day 1

Compound: Nc1ncn([C@@H]2O[C@H](CO)[C@@H](O)[C@H]2O)c(=O)n1 [azacytidine]
BWC22 (%) Mean ± SD [1]: 3.6 ± 4.5%
RTV22 Mean ± SD [1]: 8.8 ± 2.0
T/C22 (%) [1]: 45%

Compound: O=C(CCCCCCC(=O)Nc1ccccc1)NO [Vorinostat, vorinostat]
Comprehensive Evaluation [2]: Additive (0.9-1.10)

Compound: C=CC(=O)N1CCC[C@@H](n2nc(-c3ccc(Oc4ccccc4)cc3)c3c(N)ncnc32)C1 [Ibrutinib, ibrutinib]
IC50 Ratio [3, 24]: 140
CI ([3]; Reference Example Compound 55:other compound 1:111): 0.70
CI ([3]; Reference Example Compound 55:other compound 1:333): 0.72

Compound: CC1(C)CCC(CN2CCN(c3ccc(C(=O)NS(=O)(=O)c4ccc(NCC5CCOCC5)c([N+](=O)[O-])c4)c(Oc4cnc5[nH]ccc5c4)c3)CC2)=C(c2ccc(Cl)cc2)C1 [ABT-199]
IC50 Ratio [7, 24]: 119
CI [7, 29]: 0.37
CI ([7]; Reference Example Compound 55:other compound 1:180): 0.40
Comprehensive Evaluation [7, 26]: Synergism (0.3-0.7)

Compound: COc1cccc2c1C(=O)c1c(O)c3c(c(O)c1C2=O)C[C@@](O)(C(=O)CO)C[C@@H]3O[C@H]1C[C@H](N)[C@H](O)[C@H](C)O1 [doxorubicin hydrochloride]
RTV22 compared with the control group (Dunnett's test) ([8]; SU-CCS-1 in BALB/cAJcl-nu/nu mice, reference example compound 12.5 or 25 mg/kg/day iv day 1 and 8, doxorubicin hydrochloride 8 mg/kg/day iv day 1): significantly lower
BWC22 (%) Mean ± SD [8, 30]: −0.3 ± 2.6%
RTV22 Mean ± SD [8, 30]: 6.6 ± 0.8
T/C22 (%) [8, 30]: 74%

Compound: CCc1nc(C(N)=O)c(Nc2ccc(N3CCC(N4CCN(C)CC4)CC3)c(OC)c2)nc1NC1CCOCC1 [gilteritinib]
CI ([10]; Reference Example Compound 55:other compound 1:20): 0.96
CI [10, 29]: 0.88
Comprehensive Evaluation [10, 26]: Additive (0.9-1.10)
BWC15 (%) Mean ± SD [11]: 5.8 ± 3.0%
RTV15 Mean ± SD [11]: 1.9 ± 0.5
T/C15 (%) [11]: 41%

Second part, led by results:

IC50 Ratio (U266B1; [24]): 0.05
Compound: CC(C)C[C@H](NC(=O)[C@H](Cc1ccccc1)NC(=O)c1cnccn1)B(O)O [Bortezomib, bortezomib]
CI (U266B1; Reference Example Compound 55:other compound 1:0.02): 0.56
CI (U266B1; [25]): 0.51
Comprehensive Evaluation (U266B1; [26]): Synergism (0.3-0.7)
BWC15 (%) Mean ± SD [4]: 1.3 ± 3.2%
RTV15 Mean ± SD [4]: 6.9 ± 3.2
T/C15 (%) [4]: 66%

IC50 Ratio [5, 24]: 21
Compound: O=C(c1cc(Cc2n[nH]c(=O)c3ccccc23)ccc1F)N1CCN(C(=O)C2CC2)CC1 [Olaparib, olaparib]
CI [5, 27]: 0.61
CI [5, 28]: 0.69
Comprehensive Evaluation [5, 26]: Synergism (0.3-0.7)

IC50 Ratio [6, 24]: 2122
Compound: CN[C@@H](C)C(=O)N[C@H](C(=O)N1CCC[C@H]1C(=O)Nc1snnc1-c1ccccc1)C1CCCCC1 [GDC-0152]
CI ([6]; Reference Example Compound 55:other compound 1:90): 0.45
CI ([6]; Reference Example Compound 55:other compound 1:270): 0.62
Comprehensive Evaluation [6, 26]: Synergism (0.3-0.7)

IC50 Ratio [2, 24]: 0.08
Compound: Cc1[nH]c2ccccc2c1CCNCc1ccc(/C=C/C(=O)NO)cc1 [Panobinostat, panobinostat]
CI [2, 25]: 0.90
CI ([2]; Reference Example Compound 55:other compound 1:0.22): 0.61
Comprehensive Evaluation [2]: Additive (0.9-1.10)

IC50 Ratio [9, 24]: 21
Compound: O=C(/C=C\n1cnc(-c2cc(C(F)(F)F)cc(C(F)(F)F)c2)n1)NNc1cnccn1 [KPT-330]
CI ([9]; Reference Example Compound 55:other compound 1:11): 0.69
CI ([9]; Reference Example Compound 55:other compound 1:33): 0.75
Comprehensive Evaluation [9, 26]: Moderate

IC50 Ratio (HL-60; [24]): 19
Compound: CC(C)C[C@H](NC(=O)CNC(=O)c1cc(Cl)ccc1Cl)B(O)O [Ixazomib, ixazomib]
CI (HL-60; [27]): 0.82
CI (HL-60; [28]): 0.94
Comprehensive Evaluation (HL-60; [26]): Additive (0.9-1.10)

pIC50 [12]: 7.66
IC50 [13]: ≤ 0.003 µM
pIC50 [14]: 6.34
pIC50 [15]: 6.14
pIC50 [16]: 8.21
pIC50 [17]: 7.80
pIC50 [18]: 6.19
pIC50 [19]: 7.68
pIC50 [20]: 6.96
pIC50 [21]: < 5.00
pIC50 [22]: 6.14
pIC50 [23]: 6.59
Compound: Nc1ncnc2c1c(C#Cc1c(F)cccc1F)cn2[C@@H]1O[C@H](CNS(N)(=O)=O)[C@@H](O)[C@H]1O [Reference Example 1, 4-Amino-5-[2-(2,6-difluorophenyl)ethynyl]-7-[(2R,3R,4S,5R)-3,4-dihydroxy-5-[(sulfamoylamino)methyl]tetrahydrofuran-2-yl]pyrrolo[2,3-d]pyrimidine]

pIC50 [12]: 8.19
pIC50 [14]: 7.49
pIC50 [15]: 6.68
pIC50 [16]: 8.49
pIC50 [17]: 7.92
pIC50 [18]: 6.34
pIC50 [19]: 7.60
pIC50 [20]: 7.62
pIC50 [21]: 6.77
pIC50 [22]: 6.80
pIC50 [23]: 6.89
Compound: CSc1cccc(F)c1C#Cc1cn([C@@H]2C=C(CNS(N)(=O)=O)[C@@H](O)[C@H]2O)c2ncnc(N)c12 [Reference Example 130, 4-Amino-7-[(1R,4R,5S)-4,5-dihydroxy-3-[(sulfamoylamino)methyl]cyclopent-2-en-1-yl]-5-[2-(2-fluoro-6-methylsulfanyl-phenyl)ethynyl]pyrrolo[2,3-d]pyrimidine]
